Legend:
S. aureus [1] = assay: Electron microscopy of bacterial cell wall lysis; type: cell-based
Staphylococcus aureus = assay: Bacterial growth inhibition (turbidity OD600) with or without carbonate; type: cell-based; settings: for inhibition of S. aureus growth: 32 μM LL-37
keratinocytes = assay: Keratinocyte morphology, LDH release and Annexin V/propidium iodide staining; type: cell-based, human; settings: 24 hours after butyrate alone or in combination with 1,25D3
[2] = test system: Staphylococcus aureus mprF; assay: Radial diffusion assay; type: cell-based
Protocol: Sweat collection and processing. Sweat was collected on paper tissues (Kimwipes, Kimberly-Clark, Ga.) from healthy volunteers after exercise. After collection, 20 ml of sweat was centrifuged at 2000 g for 15 min. at 4° C., filtered through a […] (Acrodisc syringe filter, 0.2 mm, low protein binding, Fisher scientific, Tustin, Calif.), and frozen at −80° C. For some experiments sweat was lyophilized to dryness, then suspended in 400 μl of distilled water (DW: cell culture grade, endotoxin free, GibcoBRL, Grand island, NY). For analysis of LL37 processing by sweat, 1.6 nmol of LL-37 synthetic peptide was incubated in 50 ml of sweat for 0, 1, 6, 24 hrs at 37° C. or 4° C. In some experiments proteinase inhibitors including; mixed protease inhibitor cocktail (1tab/10 ml, Roche, Indianapolis, Ind.), […] Bestatin, 10 mg/ml E-64, 10 mg/ml Aprotinin, (Sigma, St Louis, Mo.); 100 mM AEBSF, 100 mM Neutrophil elastase inhibitor (NEI) or 100 mM leukocyte elastase inhibitor (LEI) (Calbiochem, San Diego, Calif.) were added during incubation. After incubation, 2 ml was assayed by radial diffusion assay to determine antibacterial activity. For analysis by HPLC 32 nmoles LL-37 was incubated in 100u1. To control for potential contamination from paper tissues, parallel processing was done on tissues soaked in phosphate-buffered saline (PBS:137 mM NaCl, 2.7 mM KCL, 4.3 mM Na2HPO4-H2O, 1.4 mM KH2PO4, pH 7.4). No antimicrobial activity was detectable in these preparations. Protein concentrations were evaluated by BCA assay (protein assay reagent, Pierce, Rockford, Ill.) or Bradford protein assay (Bio-Rad, Hercules, Calif.) according to manufacture's instructions. Human tissue and blood collection was approved by the UCSD Human Research Protection Program.
Antimicrobial assays. For screening of antimicrobial activity of HPLC fractions, radial diffusion assay was used. Lyophilized HPLC fractions were dissolved in DW (GibcoBRL, Grand Island, N.Y.), and tested against Staphylococcus aureus mprF. Thin plates (1 mm) of 1% agarose in 0.5% tryptone containing approximately 1×10^6 cells/ml of S. aureus mprF were used. 1 mm wells were punched in the plates and […] of samples dissolved in tissue culture grade sterile water were loaded in each well.

IL-8 = IL-8 release from normal human keratinocytes (ELISA); type: cell-based
Protocol: Measurement of IL-8 release from keratinocytes Normal human keratinocytes (NHK) were cultured in EpiLife cell medium (Cascade Biologics, Portland, Oreg.) containing 0.06 mM Ca2+, 1× EpiLife-defined growth supplement (EDGS), 50 U/ml penicillin and […] streptomycin (Invitrogen, Carlsbad, Calif.). Keratinocytes were seeded in a 96-well plate and grown to confluence under standard tissue culture conditions. Cells were incubated with […] LL-37 or LL37-derived peptides (e.g., cathelicidin functional fragments) for 8 hours at 37° C. Supernatants were collected and stored at −20° C. overnight. IL-8 ELISA Assay was performed according to the manufacturer's instructions (BD OptEIA, Pharmingen, San Diego, Calif.). Supernatants were diluted 1:10 for assay. Simultaneously, LDH assays (Roche, Indianapolis, Ind.) were used to assess the cytotoxicity of peptides to keratinocytes. LDH release following peptide exposure was compared to release induced by 1% Triton X100.

neutrophil and mast cell = assay: Neutrophil and mast cell chemotaxis; type: cell-based
[3] = test system: wild-type S. aureus (clinical isolate); assay: Radial diffusion assay; type: cell-based
FPRL-1 = molecular target: T1, FPRL-1 (Homo sapiens, UniProt P25090); assay: FPRL-1 binding
T1 sequence (P25090 1-351): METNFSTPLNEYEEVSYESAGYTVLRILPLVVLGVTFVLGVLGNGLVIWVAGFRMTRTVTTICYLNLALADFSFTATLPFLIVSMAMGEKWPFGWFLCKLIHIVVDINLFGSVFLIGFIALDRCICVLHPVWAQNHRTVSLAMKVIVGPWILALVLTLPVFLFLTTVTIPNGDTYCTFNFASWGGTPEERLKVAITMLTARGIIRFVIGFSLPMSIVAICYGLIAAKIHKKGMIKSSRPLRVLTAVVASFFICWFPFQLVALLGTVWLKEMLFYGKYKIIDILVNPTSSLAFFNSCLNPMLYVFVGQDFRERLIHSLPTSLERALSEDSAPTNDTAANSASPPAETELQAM

S. aureus [4] = assay: Release of cytoplasmic-expressed beta-galactosidase (membrane disruption); type: cell-based; settings: with versus without NaHCO3
Protocol: Release of cytoplasmic-expressed beta-galactosidase was measured from bacteria with and without the addition of NaHCO3.

dendritic cells = assay: Pro-inflammatory chemokine release from dendritic cells; type: cell-based
CYP27B1 = assay: qPCR of CYP27B1 mRNA in cultured keratinocytes; type: cell-based, human; settings: 24 hours, TGF 1 μg/ml, TNFα 20 ng/ml, TLR2 ligand Malp-2
Protocol: Cell culture and stimuli. Human keratinocytes were grown in serum-free EpiLife® cell culture media (Cascade Biologics; Portland, Oreg.) containing 0.06 mM Ca2+ and 1× EpiLife® defined growth supplement (EDGS) at 37° C. under standard tissue culture conditions. Stock cultures were maintained for up to five passages in this media with the addition of 50 U/mL penicillin and 50 μg/mL streptomycin. HaCaT keratinocytes were cultured in DMEM (Sigma, St. Louis, Mo.) with 10% FCS. Cells at 50-70% confluence were stimulated in fresh medium after preincubation with 1,25(OH)2 vitamin D3 (1,25D3; 0.1-100 nM, 4-24 h; Sigma). Alternatively, NHEK were stimulated in the presence of 1,25D3 (0.1-100 nM). […]
Real-time RT-PCR (qPCR). […] Expression of cathelicidin and GAPDH was analysed by real-time RT-PCR. […] Fold induction relative to the vehicle treated control in in vitro experiments was calculated using the comparative Ct method, where ΔΔCt is ΔCt(stimulant)-ΔCt(vehicle), ΔCt is Ct(gene)-Ct(GAPDH) and Ct is the cycle at which an arbitrary detection threshold is crossed. For quantification of transcript abundance in tissue samples target gene expression was normalized to GAPDH and compared to non-treated or non-injured skin.

For O=C(O)O [NaHCO3], the “bacterial cell wall damage (EM)” value (S. aureus [1]; 25 mm NaHCO3 alone) was “no visible effect”, the “effect of NaHCO3 alone on bacterial growth” value (Staphylococcus aureus; 25 mM NaHCO3, no peptide) was “without effecting bacterial growth” and the “effect of NaHCO3 alone on bacterial growth” value (Staphylococcus aureus; high concentrations of NaHCO3) was “retarded the growth of S. aureus”. For the same compound, the “increase of LL-37 antimicrobial activity by carbonate containing compound” value (Staphylococcus aureus; medium with 32 μM LL-37, pH 7.4, KHCO3 and Na2CO3 at 50 mM) was “responsible for this increase”.

In the case of CCCC(=O)O [butyrate], the “cell morphology, cell death or apoptosis” value (keratinocytes) is reported as “no change was seen in cell morphology, cell death or apoptosis”.

“LLGDFFRKSKEKIGKEFKRIVQRIKDFLRNLVPRTES [LL-37]” was tested, and the “zone of inhibition after incubation of LL-37 in PBS or distilled water” value ([2]; identical conditions in PBS or distilled water) was “did not affect activity”, the “zone of inhibition after incubation of LL-37 in sweat” value ([2]; incubation at 37° C. in sweat) was “increased the zone of inhibition and apparent antimicrobial activity” and the “zone of inhibition after incubation of LL-37 in sweat” value ([2]; incubation in sweat at 4° C.) was “did not occur at 4 °C”. For the same compound, the “pro-inflammatory release from keratinocytes” value (IL-8) was “induces pro-inflammatory release”, the “neutrophil and mast cell chemotaxis” value (neutrophil and mast cell) was “induces neutrophil and mast cell chemotaxis” and the “Radial Diffusion Assay, minimal inhibitory concentration (MIC), S. aureus (wt)” value [3] was 4 μm. For the same compound, the “binding to FPRL-1” value (FPRL-1) was “bind FPRL-1”, the “leakage of cytoplasmic protein (beta-galactosidase)” value (S. aureus [4]) was “induces greater leakage of cytoplasmic protein with carbonate” and the “bacterial cell wall damage (EM)” value (S. aureus [1]; 32 μM LL-37, absence of NaHCO3, four hours) was “caused a small amount of damage to bacterial cell walls”. For the same compound, the “bacterial cell wall damage (EM)” value (S. aureus [1]; 32 μM LL-37 with 25 mM NaHCO3, four hours) was “totally ablated them”, the “inhibition of S. aureus growth” value (Staphylococcus aureus; TSB media alone, or with NaCl and FBS) was “inhibited Staphalococcus aureus growth poorly” and the “inhibition of S. aureus growth” value (Staphylococcus aureus; in the presence of MEM buffers) was “inhibition was greatly increased”. The “growth of S. aureus” value (Staphylococcus aureus; 32 μM LL-37 with 25 mM NaHCO3, pH 7.4) was “complete inhibition of bacterial growth”, the “antimicrobial activity of LL-37, bicarbonate versus pH” value (Staphylococcus aureus; 50 mM NaHCO3 or 50 mM glycine buffer at various pH) was “Only bicarbonate containing media was able to confer increased antimicrobial activity” and the “change of minimal inhibitory concentration (MIC) by NaHCO3” value (Staphylococcus aureus; 20% TSB, 1 mM NaH2PO4, with or without 50 mM NaHCO3, pH 7.4) was “greatly reduced”. For the same compound, the “pro-inflammatory chemokine release from dendritic cells” value (dendritic cells) was “blocks pro-inflammatory chemokine release”.

In the case of Polymyxin B, the “leakage of cytoplasmic protein (beta-galactosidase)” value (S. aureus [4]) is reported as “induces greater leakage of cytoplasmic protein with carbonate”.

TNFα was tested, and the CYP27B1 expression (CYP27B1) was “had no effect”.
